Data from ChEMBL document CHEMBL4837270, “2-Trifluoromethylthiazole-5-carboxamides: Analogues of a Stilbene-Based Anti-HIV Agent that Impact HIV mRNA Processing” (ACS Med Chem Lett, 2021).
Calls of active or inactive are those of the source. The calls are words filed in the database; no cut-off is given here.

Tests used:
[1] = test system: Human immunodeficiency virus 1; experiment: Antiviral activity against HIV1 NL4-3 infected in human CEM-GXR cells assessed as inhibition of viral replication at 1.25 to 10 uM measured after 3 days by Flowcytometry assay; format: functional, organism-based; conditions: dose 1.25-10 µM, time 3.0 day
[2] = Cytotoxicity against human CEM-GXR cells infected with HIV1 NL4-3 assessed as cell viability measured after 3 days by Flowcytometry assay; format: cell-based; conditions: 72 h
[3] = test system: Human immunodeficiency virus 1; experiment: Antiviral activity against antiretroviral-resistant HIV1 2948 harboring protease G48V/L90M mutant infected in human CEM-GXR cells assessed as inhibition of viral replication measured after 3 days by Flowcytometry assay; format: functional, organism-based; conditions: Human immunodeficiency virus 1, 2948, CEM-GXR, 72 h
[4] = Therapeutic index, ratio of CC50 for human CEM-GXR cells infected with HIV1 443 harboring reverse transcriptase K103N/D67N/K70R/Y115F/Q151M/M184V/K219Q mutant to EC50 for HIV1 443 harboring reverse transcriptase K103N/D67N/K70R/Y115F/Q151M/M184V/K219Q mutant; format: toxicity; conditions: read-out: TI
[5] = Cytotoxicity against human CEM-GXR cells infected with wild type HIV1 97USSN54 assessed as cell viability measured after 72 hrs by Flow cytometry assay; format: cell-based
[6] = Therapeutic index, ratio of CC50 for human CEM-GXR cells infected with wild type HIV1 97USSN54 to EC50 for wild type HIV1 97USSN54 infected in human CEM-GXR cells; format: toxicity, cell-based; conditions: read-out: TI
[7] = Cytotoxicity against human CEM-GXR cells infected with wild type HIV1 MVC-res harboring envelope V3 loop A19T/L20F/T22A/E25D/I26V mutant assessed as cell viability measured after 72 hrs by Flow cytometry assay; format: cell-based
[8] = Therapeutic index, ratio of CC50 for human CEM-GXR cells infected with wild type HIV1 NL4-3 to EC50 for wild type HIV1 NL4-3 infected in human CEM-GXR cells; format: toxicity, cell-based; conditions: read-out: TI
[9] = Cytotoxicity against human PBMC cells assessed as cell viability measured after 11 days by Viacount assay; format: cell-based; conditions: time 11 day
[10] = test system: Human immunodeficiency virus 1; experiment: Antiviral activity against wild type HIV1 97USSN54 infected in human CEM-GXR cells assessed as inhibition of viral replication measured after 3 days by Flowcytometry assay; format: functional, organism-based; conditions: Human immunodeficiency virus 1, 97USSN54, CEM-GXR, 72 h
[11] = test system: Human immunodeficiency virus 1; experiment: Antiviral activity against antiretroviral-resistant HIV1 11845 harboring integrase G140S/Q148H mutant infected in human CEM-GXR cells assessed as inhibition of viral replication measured after 3 days by Flowcytometry assay; format: functional, organism-based; conditions: Human immunodeficiency virus 1, 11845, CEM-GXR, 72 h
[12] = test system: Human immunodeficiency virus 1; experiment: Antiviral activity against antiretroviral-resistant HIV1 443 harboring reverse transcriptase K103N/D67N/K70R/Y115F/Q151M/M184V/K219Q mutant infected in human CEM-GXR cells assessed as inhibition of viral replication measured after 3 days by Flowcytometry assay; format: functional, organism-based; conditions: Human immunodeficiency virus 1, 443, CEM-GXR, 72 h
[13] = Therapeutic index, ratio of CC50 for human CEM-GXR cells infected with HIV1 MVC-res harboring envelope V3 loop A19T/L20F/T22A/E25D/I26V mutant to EC50 for HIV1 MVC-res harboring envelope V3 loop A19T/L20F/T22A/E25D/I26V mutant infected in human CEM-GXR cells; format: toxicity, cell-based; conditions: read-out: TI
[14] = Therapeutic index, ratio of CC50 for human CEM-GXR cells infected HIV1 2948 with harboring protease G48V/L90M mutant to EC50 for HIV1 2948 harboring protease G48V/L90M mutant infected in human CEM-GXR cells; format: toxicity, cell-based; conditions: read-out: TI
[15] = Cytotoxicity against human CEM-GXR cells infected with wild type HIV1 443 harboring reverse transcriptase K103N/D67N/K70R/Y115F/Q151M/M184V/K219Q mutant assessed as cell viability measured after 72 hrs by Flow cytometry assay; format: cell-based
[16] = Cytotoxicity against human CEM-GXR cells infected with wild type HIV1 11845 harboring […] G140S/Q148H mutant assessed as cell viability measured after 72 hrs by Flow cytometry assay; format: cell-based
[17] = test system: Human immunodeficiency virus 1; experiment: Antiviral activity against wild type HIV1 NL4-3 infected in human CEM-GXR cells assessed as inhibition of viral replication measured after 3 days by Flowcytometry assay; format: functional, organism-based; conditions: Human immunodeficiency virus 1, NL4-3, CEM-GXR, 72 h
[18] = Anti-HIV activity against HIV1 3B infected in human PBMC assessed as inhibition of viral infection measured after 11 days by ELISA method; format: functional, cell-based; conditions: Human immunodeficiency virus 1, 3B, 264 h
[19] = Therapeutic index, ratio of CC50 for human CEM-GXR cells infected with HIV1 11845 harboring integrase G140S/Q148H mutant to EC50 for HIV1 11845 harboring integrase G140S/Q148H mutant infected in human CEM-GXR cells; format: toxicity, cell-based; conditions: read-out: TI
[20] = test system: Human immunodeficiency virus 1; experiment: Antiviral activity against HIV1 NL4-3 infected in human CEM-GXR cells assessed as inhibition of viral replication measured after 3 days by Flowcytometry assay; format: functional, organism-based; conditions: Human immunodeficiency virus 1, NL4-3, CEM-GXR, 72 h
[21] = Cytotoxicity against human CEM-GXR cells infected with wild type HIV1 NL4-3 assessed as cell viability measured after 72 hrs by Flow cytometry assay; format: cell-based
[22] = test system: Human immunodeficiency virus 1; experiment: Anti-HIV activity against HIV1 Bal infected in human PBMC assessed as inhibition of viral infection measured after 11 days by ELISA method; format: functional, organism-based; conditions: Human immunodeficiency virus 1, Bal, 264 h
[23] = Cytotoxicity against human CEM-GXR cells infected with HIV1 NL4-3 assessed as cell viability at 10 uM measured after 72 hrs by Flowcytometry assay; format: cell-based
[24] = test system: Human immunodeficiency virus 1; experiment: Antiviral activity against antiretroviral-resistant HIV1 MVC-res harboring envelope V3 loop A19T/L20F/T22A/E25D/I26V mutant infected in human CEM-GXR cells assessed as inhibition of viral replication measured after 3 days by Flowcytometry assay; format: functional, organism-based
[25] = Cytotoxicity against human CEM-GXR cells infected with wild type HIV1 2948 harboring protease G48V/L90M mutant assessed as cell viability measured after 72 hrs by Flow cytometry assay; format: cell-based
[26] = Cytotoxicity against human CEM-GXR cells infected with HIV1 NL4-3 assessed as cell viability at 1.25 to 10 uM measured after 3 days by Flowcytometry assay; format: cell-based; conditions: 72 h, dose 1.25-10 µM, time 3 day
[27] = test system: Human immunodeficiency virus; experiment: Antiviral activity against HIV; format: functional, organism-based; conditions: Human immunodeficiency virus 1
[28] = test system: Human immunodeficiency virus 1; experiment: Anti-HIV activity against HIV1 provirus infected in HeLa cells assessed as reduction of GAG production in presence of Doxycycline measured after 24 hrs by GFP flourescence based plate reader method; format: functional, organism-based
HeLa = experiment: Cytotoxicity against human HeLa cells infected with HIV1 assessed as cell viability upto 5 uM measured after 24 hrs by plate reader method; format: cell-based
[29] = test system: Human immunodeficiency virus 1; experiment: Antiviral activity against HIV1 infected in HeLa cells assessed as decrease of unspliced RNA levels at 5 uM measured after 24 hrs by RT-qPCR method; format: functional, organism-based
[30] = test system: Human immunodeficiency virus 1; experiment: Antiviral activity against HIV1 infected in HeLa cells assessed as decrease of unspliced RNA levels at 1.25 uM measured after 24 hrs by RT-qPCR method; format: functional, organism-based
[31] = test system: Human immunodeficiency virus 1; experiment: Antiviral activity against HIV1 infected in HeLa cells assessed as decrease of multiply spliced RNA levels at 1.25 uM measured after 24 hrs by RT-qPCR method; format: functional, organism-based
[32] = test system: Human immunodeficiency virus 1; experiment: Antiviral activity against HIV1 infected in HeLa cells assessed as decrease of singly spliced RNA levels at 5 uM measured after 24 hrs by RT-qPCR method; format: functional, organism-based
[33] = test system: Human immunodeficiency virus 1; experiment: Antiviral activity against HIV1 infected in HeLa cells assessed as decrease of multiply spliced RNA levels at 5 uM measured after 24 hrs by RT-qPCR method; format: functional, organism-based
[34] = test system: Human immunodeficiency virus 1; experiment: Antiviral activity against HIV1 infected in HeLa cells assessed as decrease of singly spliced RNA levels at 1.25 uM measured after 24 hrs by RT-qPCR method; format: functional, organism-based

O=C(Nc1nc2c(Cl)cccc2s1)c1cccs1
Activity [1]: inactive

O=C(Nc1nc2c(Cl)cccc2s1)c1ccc([N+](=O)[O-])s1
EC50 [2]: 5.5 µM | Activity [1]: Active

O=C(Nc1nc2c(Cl)cccc2s1)c1cnc(C(F)(F)F)s1
EC50 [3]: 1.17 µM | selectivity ratio [4]: 83 | CC50 at 72 h [5]: 95.7 µM | selectivity ratio [6]: 100 | CC50 at 72 h [7]: 95.7 µM | selectivity ratio [8]: 74 | CC50 at 264 h [9]: 9.08 µM | EC50 [10]: 0.96 µM | EC50 [11]: 0.96 µM | EC50 [12]: 1.16 µM | selectivity ratio [13]: 99 | selectivity ratio [14]: 82 | CC50 at 72 h [15]: 95.7 µM | CC50 at 72 h [16]: 95.7 µM | EC50 [17]: 1.29 µM | EC50 [18]: 1.93 µM | selectivity ratio [19]: 101 | EC50 [20]: 1.66 µM | CC50 at 72 h [21]: 95.7 µM | EC50 [22]: 0.24 µM | Activity [23]: Non-Toxic | EC50 [24]: 0.97 µM | CC50 at 72 h [25]: 95.7 µM

O=C(Nc1nc2ccc(OC(F)(F)F)cc2s1)c1ccc([N+](=O)[O-])s1
Activity [26]: Toxic | Activity [1]: Active

O=C(Nc1nc2ccc(Cl)cc2s1)c1ccc([N+](=O)[O-])s1
Activity [26]: Toxic | Activity [1]: Active

O=C(Nc1nc2ccc(C(F)(F)F)cc2s1)c1ccc([N+](=O)[O-])s1
EC50 [2]: 0.5 µM | Activity [1]: Active

O=C(Nc1cnc2ccccc2c1)c1ccc([N+](=O)[O-])s1
Activity [1]: inactive

O=C(Nc1cccc2ncccc12)c1ccc([N+](=O)[O-])s1
Activity [1]: inactive

O=C(Nc1nc2ccc([N+](=O)[O-])cc2s1)c1ccc([N+](=O)[O-])s1
EC50 [2]: 2.4 µM | Activity [1]: Active

O=[N+]([O-])c1ccc(/C=C/c2ccc3ccccc3n2)s1
EC50 [27]: 0.5 µM

O=C(Nc1nc2cc(Br)ccc2s1)c1ccc([N+](=O)[O-])s1
Activity [26]: Toxic | Activity [1]: Active

Nc1nc(=O)n([C@@H]2CS[C@H](CO)O2)cc1F [EMTRICITABINE]
CC50 at 72 h [5]: > 100 µM | selectivity ratio [6]: > 3850 | selectivity ratio [8]: > 2940 | CC50 at 264 h [9]: > 10 µM | EC50 [10]: 0.03 µM | EC50 [17]: 0.03 µM | EC50 [18]: 0.0055 µM | CC50 at 72 h [21]: > 100 µM | EC50 [22]: 0.0021 µM

O=C(Nc1nc2c(Cl)cccc2s1)c1ccc(C(F)(F)F)s1
EC50 [20]: 5.5 µM

N#Cc1ccc(C(=O)Nc2nc3c(Cl)cccc3s2)s1
EC50 [20]: 3 µM

O=C(Nc1ccc(C(F)(F)F)cc1)c1ccc([N+](=O)[O-])s1
Activity [28]: inactive

Cc1ccc(C(=O)Nc2nc3c(Cl)cccc3s2)s1
Activity [1]: inactive

O=C(Nc1nc2c(Cl)cc(Cl)cc2s1)c1ccc([N+](=O)[O-])s1
Activity [26]: Toxic | Activity [1]: Active

O=C(Nc1cccc2cccnc12)c1ccc([N+](=O)[O-])s1
Activity [1]: inactive

O=C(Nc1cncc2ccccc12)c1ccc([N+](=O)[O-])s1
Activity [1]: inactive

O=C(Nc1nsc2ccc([N+](=O)[O-])cc12)c1ccc([N+](=O)[O-])s1
Activity [1]: inactive

O=C(Nc1nc2ccc(C(F)(F)F)cc2s1)c1cnc(C(F)(F)F)s1
Activity (HeLa): Toxic | EC50 [3]: 0.23 µM | selectivity ratio [4]: 51 | CC50 at 72 h [5]: 12.1 µM | selectivity ratio [6]: 68 | CC50 at 72 h [7]: 12.1 µM | Activity [29]: inactive | Activity [30]: Active | selectivity ratio [8]: 49 | Activity [31]: Active | CC50 at 264 h [9]: 2.51 µM | EC50 [10]: 0.18 µM | EC50 [11]: 0.2 µM | EC50 [12]: 0.24 µM | selectivity ratio [13]: 56 | Activity [32]: inactive | selectivity ratio [14]: 52 | CC50 at 72 h [15]: 12.1 µM | Activity [33]: inactive | CC50 at 72 h [16]: 12.1 µM | EC50 [17]: 0.25 µM | EC50 [18]: 0.74 µM | selectivity ratio [19]: 59 | EC50 [20]: 0.47 µM | CC50 at 72 h [21]: 12.1 µM | EC50 [22]: 0.25 µM | Activity [34]: Active | Activity [28]: Dose-Dependent Effect | EC50 [24]: 0.22 µM | CC50 at 72 h [25]: 12.1 µM
